According to PubChem BioAssay (NCI):
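Assay format: 96-well plates, 48-hour exposure. The concentration for 50% growth inhibition is given as GI50. TGI marks complete inhibition of growth.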

Experiments:
Experiment in all cases: NCI tumour cell line growth inhibition, 48 h
HCC-2998 colon = system: HCC-2998 colon
HL-60(TB) leukemia = system: HL-60(TB) leukemia
KM12 colon = system: KM12 colon
LXFL 529 NSCLC = system: LXFL 529 NSCLC
M19-MEL melanoma = system: M19-MEL melanoma
OVCAR-4 ovarian = system: OVCAR-4 ovarian
SNB-19 CNS = system: SNB-19 CNS
TK-10 renal = system: TK-10 renal
U251 CNS = system: U251 CNS
T-47D breast = system: T-47D breast

Row | SMILES | GI50 (HCC-2998 colon) [µM] | TGI (HCC-2998 colon) [µM] | GI50 (HL-60(TB) leukemia) [µM] | TGI (HL-60(TB) leukemia) [µM] | GI50 (KM12 colon) [µM] | TGI (KM12 colon) [µM] | GI50 (LXFL 529 NSCLC) [µM] | TGI (LXFL 529 NSCLC) [µM] | GI50 (M19-MEL melanoma) [µM] | TGI (M19-MEL melanoma) [µM] | GI50 (OVCAR-4 ovarian) [µM] | TGI (OVCAR-4 ovarian) [µM] | GI50 (SNB-19 CNS) [µM] | TGI (SNB-19 CNS) [µM] | GI50 (TK-10 renal) [µM] | TGI (TK-10 renal) [µM] | GI50 (U251 CNS) [µM] | TGI (U251 CNS) [µM] | TGI (T-47D breast) [µM]
1 | CCCCCCC[CH2][Sn]1([CH2]CCCCCCC)[O]C(=O)c2cccnc2[O]1 | > 100 | > 100 | > 100 | > 100 | > 100 | > 100 | > 100 | > 100 | > 100 | > 100 | > 100 | > 100 | > 100 | > 100 | > 100 | > 100 | > 100 | > 100 | –
2 | CCSc1c2ccccc2c(-c2nc(F)nc(F)n2)n1CCc1ccccc1 | – | > 100 | – | > 100 | – | > 100 | – | > 100 | – | > 100 | – | > 100 | – | > 100 | – | > 100 | – | > 100 | –
3 | COc1cc(CCc2ccc(N)cc2)cc(OC)c1OC | – | > 100 | – | > 92.5 | – | > 100 | – | > 100 | – | > 100 | – | > 100 | – | > 100 | – | > 100 | – | > 100 | –
4 | Brc1ccc2ns[s+]c2c1 | – | 25.8 | – | > 100 | – | > 100 | – | > 100 | – | > 100 | – | > 100 | – | > 100 | – | > 100 | – | > 31.6 | –
5 | CC(=O)O[C@H]1CC[C@@]2(C)C(=CC[C@@H]3C2CC[C@]2(C)Nc4nc5ccccc5cc4CC32)C1 (some centres not stated) | – | 10.8 | – | 17.7 | – | 12.9 | – | 12 | – | 12.2 | – | 21.4 | – | 7.89 | – | 18.1 | – | 7.58 | –
6 | O=c1[nH]cnc2c1nnn2CCCCCCCCCCCCn1nnc2c(=O)[nH]cnc21 | – | > 100 | – | > 100 | – | > 100 | – | > 100 | – | > 100 | – | > 100 | – | 54.9 | – | 50.7 | – | 52.8 | > 100
7 | Nc1c(Cl)ncnc1NCCCNc1ncnc(Cl)c1N | – | > 100 | – | > 100 | – | > 100 | – | > 100 | – | > 100 | – | > 100 | – | > 100 | – | > 100 | – | > 100 | –
8 | NC(=O)NC1C(C(N)=O)N(Cc2ccccc2)C(=O)N1Cc1ccccc1 (configuration not stated) | – | > 100 | – | > 100 | – | > 100 | – | > 100 | – | > 100 | – | > 100 | – | > 100 | – | > 100 | – | > 100 | –
